The target of this test is Bacillus anthracis lethal factor (Bacillus anthracis, UniProt P15917). Briefly: biochemical.

Each structure is given as a SMILES string.

Bacillus anthracis lethal factor, sequence (P15917 34-809 limits assumed): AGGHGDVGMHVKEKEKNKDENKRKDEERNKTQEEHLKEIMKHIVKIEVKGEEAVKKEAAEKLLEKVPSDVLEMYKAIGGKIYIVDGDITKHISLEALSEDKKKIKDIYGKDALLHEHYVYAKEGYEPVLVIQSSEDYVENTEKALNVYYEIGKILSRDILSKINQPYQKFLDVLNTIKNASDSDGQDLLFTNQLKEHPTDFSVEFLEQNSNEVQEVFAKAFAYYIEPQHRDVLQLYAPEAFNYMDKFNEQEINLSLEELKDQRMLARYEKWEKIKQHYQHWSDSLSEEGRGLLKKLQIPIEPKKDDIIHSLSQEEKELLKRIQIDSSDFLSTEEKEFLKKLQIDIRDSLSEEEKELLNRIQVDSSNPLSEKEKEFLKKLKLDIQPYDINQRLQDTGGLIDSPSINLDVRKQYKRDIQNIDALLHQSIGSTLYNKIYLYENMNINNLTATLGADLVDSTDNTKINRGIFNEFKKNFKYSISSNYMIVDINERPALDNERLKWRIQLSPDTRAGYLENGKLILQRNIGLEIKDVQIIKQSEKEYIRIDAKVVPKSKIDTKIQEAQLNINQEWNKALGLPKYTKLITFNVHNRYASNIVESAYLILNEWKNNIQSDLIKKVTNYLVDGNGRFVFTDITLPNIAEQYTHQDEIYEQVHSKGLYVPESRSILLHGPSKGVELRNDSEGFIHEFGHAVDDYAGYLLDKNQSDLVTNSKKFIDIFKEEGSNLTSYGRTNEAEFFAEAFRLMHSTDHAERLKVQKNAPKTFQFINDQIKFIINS

Consider `Cc1cc(S(=O)(=O)N[C@@H](C(=O)NO)C2CCOCC2)ccc1F`, for which half-maximal inhibition (IC50) was put at 60 nM.

The values above are taken from patent publication US7504425B2 (priority 2002, dated 2009).
